In US9220723B2, “Cancer therapy” (BRANDEIS UNIVERSITY, priority 2010, dated 2015):

Assays:
[1] = mouse, in vivo; cited from earlier work
[2] = test system: NRASD12 expressing NIH3T3 cells; assay: Immunofluorescence localization of NRASD12 after FASN inhibitor treatment; assay type: cell-based; conditions: 1 uM, 3 hrs post-treatment, anti-myc-tag immunofluorescence
Description: Localization of myc-tagged NRASD12 in MSCV-GFP-ires-2xmycNRASD12 infected NIH3T3 cells 3 hrs post-treatment with 1 uM cerulenin or 1 uM C75. NRASD12 were visualized by confocal microscope after probing with anti-myc-tag (9E10) antibody overnight at 4° C. and AlexaFluor-conjugated secondary antibody (red).
As a proof of principle studies of the effect of FASN inhibitors on NRAS palmitoylation/localization, we examined the effect of cerulenin and C75 on NRASD12 expressing NIH3T3 cells.

[3] = caused by highly reactive epoxy group; cited from earlier work
[4] = test system: NIH3T3 cells expressing the GFP-NRASD12 fusion protein; assay: Confocal localization of GFP-NRASD12 after DHHC9 siRNA transfection; assay type: cell-based; conditions: confocal microscopy
Description: (§1) (A) Relative DHHC9 (SEQ ID NO: 10) mRNA levels in NIH3T3 cells transfected by either DHHC9 (SEQ ID NO: 10) siRNA or control siRNA were determined by real-time RT-PCR. (B) GFP-NRASD12 expressing NIH3T3 cells transfected by either DHHC9 (SEQ ID NO: 10) siRNA or control siRNA were visualized by confocal microscope. Original magnification was 630×.
(§2) To determine the role of DHHC9 (SEQ ID NO: 10) in NRAS biology, we first examined the effect of DHHC9 (SEQ ID NO: 10) downregulation on cellular localization of oncogenic NRAS (NRASD12). RNA interference (RNAi) is a powerful tool for gene function studies and holds promise for the development of new molecular medicines. RNAi usually downregulate but often not abolish the target mRNAs, which mimic therapies more than gene-knockout. In addition, since DHHC9 (SEQ ID NO: 10) may have substrates other than RAS, knocking out the DHHC9 (SEQ ID NO: 10) gene might be toxic to cells. For these reasons we tested several small interference RNA (siRNA) specific to murine DHHC9 (SEQ ID NO: 10) for their ability to downregulate the DHHC9 (SEQ ID NO: 10) mRNA. […] Still further, the present invention provides systems for identifying cancer patients likely to respond to therapy that includes administration of one or more palmitoyl-acyl transferase inhibitors.

[5] = test system: murine DHHC9 mRNA; assay: Real-time RT-PCR of DHHC9 mRNA after siRNA transfection; assay type: cell-based; conditions: NIH3T3 cells, compared to scrambled siRNA
Description: as §1, §2

[6] = test system: 3T3-NRASD12 cells; assay: Cell morphology and foci (sphere) formation, 3T3-NRASD12; assay type: cell-based; conditions: 3T3-NRASD12 cells cultured for 6 days
Description: (§3) FIG. 16 illustrates the morphology of cultured NIH3T3 cells stably expressing the proteins and miRNAs indicated. Equal numbers (5×10^5) of cells were plated onto 100-mm plates after puromycin selection and were cultured for 6 days before representative pictures were taken (original magnification 100×)
(§4) Both 3T3-NRASD12 ^28 and 3T3-KRAS4BD12 form sphere-like foci in culture, while 3T3-MiG cells grow as normal NIH3T3 cells (FIG. 16). […] We plated equal cell numbers of scrambled or FASN miRNA-transduced, puromycin-selected 3T3-NRASD12 or 3T3-KRASD12 cell lines cultured for 6 days and observed cell morphology and foci formation (FIG. 16). […] However, these cells had somewhat altered morphology, similar to those observed in 3T3-NRASD12^C181S cells.

[7] = test system: 3T3-KRASD12 cells; assay: Cell morphology and foci (sphere) formation, 3T3-KRASD12; assay type: cell-based; conditions: 3T3-KRASD12 cells cultured for 6 days
Description: as §3, §4

[8] = test system: NIH3T3 cells expressing GFP-KRAS4BD12; assay: Confocal localization of GFP-KRAS4BD12 after FASN miRNA transduction; assay type: cell-based; conditions: confocal microscopy
Text: (§5) Fixed and permeablized cells were stained with an anti-BIP antibody, followed by an alexafluor 635-conjugated secondary antibody, and visualized on a Leica TCS SP2 Spectral Confocal Microscope. Original magnification was 630×.
(§6) We then examined the effect of knocking down FASN expression on RAS localization by the RNA interference (RNAi) approach. RNAi is endogenously mediated by microRNA (miRNA) ^30. miRNAs are generated from primary transcripts (pri-miRNAs) and processed into pre-miRNA and eventually mature miRNA. Artificial miRNAs are natural pri-miRNA in which the stem sequence of a miRNA has been substituted with a sequence targeting the gene of interest. In target cells, artificial miRNA undergoes the same processing steps of the parental pri-miRNA. A FASN specific small hairpin (sh) RNA (Open-Biosystems) was cloned into a MSCV-based retroviral shRNAmir (pSM2; Open-Biosystems) vector to generate an artificial miRNA for FASN (the cloning oligo for the FASN shRNA: 5′ TGCTGTTGACAGTGAGCGCCGCTTCTTAGAGATTGGCAAATAGTGAAGCCACAGATGTATTTGCCAATCTCTAAGAAGCGATGCCTACTGCCTCGGA 3′ (SEQ ID NO: 35)). The miRNA is under the control a U6 promoter and the vector includes a puromycin resistance gene under the control of phosphoglycerate kinase (PGK) eukaryotic promoter ^31. […]

[9] = test system: FASN; assay: Western blot of FASN expression after FASN miRNA transduction; assay type: cell-based; conditions: NIH3T3 cell lines, puromycin selected (data not shown)
Text: as §6, with “^31. A scrambled shRNA (the cloning oligo: 5′ TGCTGTTGACAGTGAGCGCTTCCTCTCTTTCTCTCCCTTTA GTGAAGCCACAGATGTACAAGGGAGAGAAAGAGAGGAAGGATGCCTACTGCCTCGGA 3′ (SEQ ID NO: 36)) was similarly cloned into pSM2 as a control.” for “^31.”

[10] = test system: 3T3-GFP-NRASD12 cells; assay: Confocal localization of GFP-NRASD12 after FASN miRNA transduction; assay type: cell-based; conditions: confocal microscopy
Text: as §5, §6

## C=C1C(=O)OC(CCCCCCCC)C1C(=O)O (centres unmarked) [C75]
[1]
  effects of treatment on metabolism, weight and feeding: increased metabolism, rapid and significant weight loss, and fasting
[2]
  localization of NRASD12: mislocalized to internal membranes

## C/C=C/C/C=C/CCC(=O)[C@H]1O[C@H]1C(N)=O [cerulenin, Cerulenin]
[2]
  localization of NRASD12: mislocalized to internal membranes
[3]
  stability: innate instability

## DHHC9 siRNA: siRNA specific to murine DHHC9; sense SEQ ID NO: 37, antisense SEQ ID NO: 38 (sense GGAAGAAGAACUAUGUAUUAUAUGT; antisense ACAUAUAAUACAUAGUUCUUCUUCCCU; chemistry not given here)
[4]
  localization of GFP-NRASD12: mislocalization of GFP-NRASD12 to internal membranes
[5]
  levels of DHHC9 mRNA: dramatically reduced

B1: FASN miRNA: FASN specific small hairpin RNA (Open-Biosystems) cloned into pSM2 retroviral shRNAmir vector; cloning oligo SEQ ID NO: 35 (nucleic acid)
DNA: TGCTGTTGACAGTGAGCGCCGCTTCTTAGAGATTGGCAAATAGTGAAGCCACAGATGTATTTGCCAATCTCTAAGAAGCGATGCCTACTGCCTCGGA
[6]
  sphere (foci) formation: no longer formed spheres
[7]
  sphere (foci) formation: formed spheres
[8]
  localization of GFP-KRAS4BD12: localized to both the plasma membrane and internal membranes
[9]
  FASN expression: largely abolished
[10]
  localization of GFP-NRAS: mislocalized to endomembranes
